Measurements: patent publication US20040259096A1, “Receptor capture assay” (priority 2001, published 2004)

What was measured:
AhR [1] = molecular target: T1, AhR (Cavia porcellus, UniProt Q6J287); assay: Receptor capture assay, real-time PCR, rodent cytosol as source of AhR; format: biochemical; parameters: EC50 of dose-response curve; other: TCDD and BNF curves performed simultaneously; slope of dose-response curve; settings: TCDD and BNF curves performed simultaneously
T1 sequence (Q6J287 1-846): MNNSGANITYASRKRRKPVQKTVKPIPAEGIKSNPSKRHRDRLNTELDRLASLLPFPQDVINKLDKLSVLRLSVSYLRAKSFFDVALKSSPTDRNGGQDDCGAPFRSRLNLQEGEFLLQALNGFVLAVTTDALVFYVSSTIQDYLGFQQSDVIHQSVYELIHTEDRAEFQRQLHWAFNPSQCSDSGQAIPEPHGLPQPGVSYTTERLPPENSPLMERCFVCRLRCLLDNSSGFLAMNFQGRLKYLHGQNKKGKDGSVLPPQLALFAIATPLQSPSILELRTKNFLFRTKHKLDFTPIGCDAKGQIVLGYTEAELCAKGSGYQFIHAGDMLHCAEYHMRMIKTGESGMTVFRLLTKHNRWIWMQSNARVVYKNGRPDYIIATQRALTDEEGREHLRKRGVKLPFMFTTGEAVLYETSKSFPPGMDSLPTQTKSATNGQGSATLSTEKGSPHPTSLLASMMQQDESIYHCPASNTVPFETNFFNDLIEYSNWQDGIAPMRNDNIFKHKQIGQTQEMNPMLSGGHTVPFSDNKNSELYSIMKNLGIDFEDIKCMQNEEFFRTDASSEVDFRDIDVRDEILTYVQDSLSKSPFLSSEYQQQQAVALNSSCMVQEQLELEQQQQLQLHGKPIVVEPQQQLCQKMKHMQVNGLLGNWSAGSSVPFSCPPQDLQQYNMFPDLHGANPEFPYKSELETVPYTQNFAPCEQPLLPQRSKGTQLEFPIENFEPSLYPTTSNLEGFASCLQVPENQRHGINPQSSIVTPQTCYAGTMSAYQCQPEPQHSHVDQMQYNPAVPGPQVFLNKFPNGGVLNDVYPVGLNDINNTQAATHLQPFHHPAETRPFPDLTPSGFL
Method: (§1) A set of calibrators consisting of 5000, 2500, 1250, […], 313, 156, and 78 parts per trillion (ppt or pg/ml) 2,3,7,8-tetrachlorodibenzo-p-dioxin (TCDD) was prepared in methanol. In addition to TCDD a set of calibrators for AhR agonist, beta-naphthoflavone (BNF) was prepared and analyzed in the assay. Separately, 25 ul of 1:50,000 dilution of 10 uM stock nucleic acid-tracer was added per 1 ml of rodent cytosol, which was the source of AhR, and was aliquoted into glass tubes. The standards were diluted 1:20 into 50-100 ul of rodent cytosol, and incubated for 1-2 hr at room temperature to 37° C. Following incubation, 40 to 100 ul of the reaction was transferred to each well of the antibody-coated Capture Strip and incubated on a shaking platform for 30 min to 1 hr at room temperature. The Capture Strips were washed 5 times with Wash Buffer B, and aspirated; optionally soaking wells for 30 sec-5 min with wash buffer during each cycle. Taqman® Universal PCR Master Mix, primers, and Taqman® probe (Applied Biosystems, Calif.) were added, and adhesive cover applied. PCR was performed and analyzed using an ABI PRISM® 7700, using default settings: 50° C., 2 min, 95° C. 10 min, and 40 cycles of [95° C., 15 sec, 60° C., 60 sec]. A threshold cycle (Ct) was determined for each reaction The Ct represents the PCR cycle at which an increase in reporter fluorescence above baseline signal can first be detected.

AhR [2] = molecular target: T2, AhR (Homo sapiens, UniProt P35869); settings: Van den Berg et al., 1998; cited from earlier work
T2 sequence (P35869 11-848): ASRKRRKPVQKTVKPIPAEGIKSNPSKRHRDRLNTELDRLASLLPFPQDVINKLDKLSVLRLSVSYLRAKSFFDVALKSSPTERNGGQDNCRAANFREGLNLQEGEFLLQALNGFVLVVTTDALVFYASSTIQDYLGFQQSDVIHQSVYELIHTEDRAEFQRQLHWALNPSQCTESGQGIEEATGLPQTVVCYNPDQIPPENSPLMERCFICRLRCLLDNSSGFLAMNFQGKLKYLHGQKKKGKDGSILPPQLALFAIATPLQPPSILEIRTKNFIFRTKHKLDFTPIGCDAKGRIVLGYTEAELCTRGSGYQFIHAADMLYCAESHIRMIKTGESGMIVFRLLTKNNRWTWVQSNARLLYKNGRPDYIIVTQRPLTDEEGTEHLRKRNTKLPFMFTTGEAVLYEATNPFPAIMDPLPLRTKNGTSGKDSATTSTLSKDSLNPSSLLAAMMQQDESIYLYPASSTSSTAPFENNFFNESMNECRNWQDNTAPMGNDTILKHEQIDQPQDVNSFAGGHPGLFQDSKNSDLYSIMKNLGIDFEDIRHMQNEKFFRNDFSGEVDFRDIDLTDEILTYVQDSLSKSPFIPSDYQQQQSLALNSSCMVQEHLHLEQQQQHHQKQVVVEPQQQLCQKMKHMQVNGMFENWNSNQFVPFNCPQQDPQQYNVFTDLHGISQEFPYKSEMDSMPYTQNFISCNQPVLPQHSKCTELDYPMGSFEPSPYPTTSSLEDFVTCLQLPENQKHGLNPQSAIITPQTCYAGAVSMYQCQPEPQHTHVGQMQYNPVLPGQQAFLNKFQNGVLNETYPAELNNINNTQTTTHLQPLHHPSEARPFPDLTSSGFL

AhR [3] = assay: Receptor capture assay, real-time PCR, rodent cytosol as source of AhR; format: biochemical
Method: as §1

| SMILES | slope of dose-response curve (AhR [1]) | EC50 (AhR [1]; read-out: EC50 of dose-response curve) [nM] | toxic equivalency factor (TEF) value (AhR [2]) | Ct Values (AhR [3]; TCDD 78 ppt) | Ct Values (AhR [3]; TCDD 156 ppt) | Ct Values (AhR [3]; TCDD 313 ppt) | Ct Values (AhR [3]; TCDD 1250 ppt) | Ct Values (AhR [3]; TCDD 2500 ppt) | Ct Values (AhR [3]; TCDD 5000 ppt) |
| --- | --- | --- | --- | --- | --- | --- | --- | --- | --- |
| O=c1cc(-c2ccccc2)oc2ccc3ccccc3c12 [BNF, beta-naphthoflavone] | −0.7637 | 0.04 | – | – | – | – | – | – | – |
| Clc1cc2c(cc1Cl)Oc1cc(Cl)c(Cl)cc1O2 [TCDD, 2,3,7,8-tetrachlorodibenzo-p-dioxin] | −1.195 | – | 1 | 24.52 | 23.81 | 23.16 | 21.3 | 20.5 | 20.28 |
